Measurements as given in the NIST ThermoML archive (doi:10.1021/acs.jced.5b00385).
Numbers after ± are expanded uncertainties.

Details: Liquid, Vibrating tube method

CCCCC(CC)COC(C)=O (configuration not stated) [2-ethylhexyl acetate]
mass density (283.45 K, 80000 kPa): 925.84 ± 1 kg/m3 | mass density (283.45 K, 90000 kPa): 930.33 ± 1.1 kg/m3 | mass density (283.45 K, 100000 kPa): 934.63 ± 1.1 kg/m3 | mass density (283.46 K, 100 kPa): 880.38 ± 0.91 kg/m3 | mass density (283.46 K, 1000 kPa): 881.05 ± 0.91 kg/m3 | mass density (283.46 K, 40000 kPa): 905.65 ± 0.97 kg/m3 | mass density (283.46 K, 50000 kPa): 911.06 ± 0.99 kg/m3 | mass density (283.46 K, 60000 kPa): 916.18 ± 1 kg/m3 | mass density (283.46 K, 70000 kPa): 921.22 ± 1 kg/m3 | mass density (283.47 K, 3000 kPa): 882.48 ± 0.91 kg/m3 | mass density (283.47 K, 5000 kPa): 883.9 ± 0.91 kg/m3 | mass density (283.47 K, 30000 kPa): 899.95 ± 0.95 kg/m3 | mass density (283.48 K, 10000 kPa): 887.37 ± 0.92 kg/m3 | mass density (283.48 K, 15000 kPa): 890.63 ± 0.93 kg/m3 | mass density (283.48 K, 20000 kPa): 893.87 ± 0.94 kg/m3 | mass density (283.48 K, 25000 kPa): 896.91 ± 0.95 kg/m3 | mass density (293.44 K, 1000 kPa): 872.61 ± 0.9 kg/m3 | mass density (293.44 K, 3000 kPa): 874.12 ± 0.9 kg/m3 | mass density (293.45 K, 5000 kPa): 875.6 ± 0.91 kg/m3 | mass density (293.45 K, 10000 kPa): 879.24 ± 0.92 kg/m3 | mass density (293.45 K, 15000 kPa): 882.73 ± 0.92 kg/m3 | mass density (293.45 K, 20000 kPa): 886.08 ± 0.93 kg/m3 | mass density (293.45 K, 25000 kPa): 889.32 ± 0.94 kg/m3 | mass density (293.45 K, 30000 kPa): 892.46 ± 0.95 kg/m3 | mass density (293.45 K, 40000 kPa): 898.43 ± 0.97 kg/m3 | mass density (293.45 K, 60000 kPa): 909.42 ± 1 kg/m3 | mass density (293.45 K, 70000 kPa): 914.46 ± 1 kg/m3 | mass density (293.45 K, 80000 kPa): 919.33 ± 1 kg/m3 | mass density (293.45 K, 100000 kPa): 928.38 ± 1.1 kg/m3 | mass density (293.46 K, 100 kPa): 871.89 ± 0.9 kg/m3 | mass density (293.46 K, 50000 kPa): 904.07 ± 0.99 kg/m3 | mass density (293.46 K, 90000 kPa): 923.91 ± 1.1 kg/m3 | mass density (303.38 K, 1000 kPa): 863.7 ± 0.89 kg/m3 | mass density (303.39 K, 3000 kPa): 865.32 ± 0.89 kg/m3 | mass density (303.39 K, 15000 kPa): 874.36 ± 0.92 kg/m3 | mass density (303.39 K, 40000 kPa): 890.82 ± 0.97 kg/m3 | mass density (303.4 K, 5000 kPa): 866.89 ± 0.9 kg/m3 | mass density (303.4 K, 10000 kPa): 870.7 ± 0.91 kg/m3 | mass density (303.4 K, 20000 kPa): 877.88 ± 0.93 kg/m3 | mass density (303.4 K, 25000 kPa): 881.31 ± 0.94 kg/m3 | mass density (303.4 K, 30000 kPa): 884.55 ± 0.95 kg/m3 | mass density (303.4 K, 50000 kPa): 896.67 ± 0.98 kg/m3 | mass density (303.4 K, 60000 kPa): 902.22 ± 1 kg/m3 | mass density (303.4 K, 70000 kPa): 907.5 ± 1 kg/m3 | mass density (303.4 K, 80000 kPa): 912.5 ± 1 kg/m3 | mass density (303.4 K, 90000 kPa): 917.28 ± 1.1 kg/m3 | mass density (303.41 K, 100 kPa): 862.94 ± 0.89 kg/m3 | mass density (303.41 K, 100000 kPa): 921.87 ± 1.1 kg/m3 | mass density (313.34 K, 100 kPa): 854.53 ± 0.88 kg/m3 | mass density (313.34 K, 1000 kPa): 855.28 ± 0.88 kg/m3 | mass density (313.34 K, 3000 kPa): 857.04 ± 0.89 kg/m3 | mass density (313.34 K, 5000 kPa): 858.73 ± 0.89 kg/m3 | mass density (313.34 K, 10000 kPa): 862.77 ± 0.9 kg/m3 | mass density (313.34 K, 15000 kPa): 866.66 ± 0.91 kg/m3 | mass density (313.34 K, 20000 kPa): 870.34 ± 0.92 kg/m3 | mass density (313.34 K, 25000 kPa): 873.92 ± 0.93 kg/m3 | mass density (313.34 K, 30000 kPa): 877.34 ± 0.94 kg/m3 | mass density (313.34 K, 40000 kPa): 883.88 ± 0.96 kg/m3 | mass density (313.34 K, 50000 kPa): 889.98 ± 0.98 kg/m3 | mass density (313.34 K, 60000 kPa): 895.7 ± 1 kg/m3 | mass density (313.34 K, 70000 kPa): 901.14 ± 1 kg/m3 | mass density (313.34 K, 80000 kPa): 906.27 ± 1.1 kg/m3 | mass density (313.34 K, 100000 kPa): 915.93 ± 1.1 kg/m3 | mass density (313.35 K, 90000 kPa): 911.19 ± 1.1 kg/m3 | mass density (323.15 K, 100 kPa): 845.74 ± 0.87 kg/m3 | mass density (323.15 K, 50000 kPa): 882.8 ± 0.98 kg/m3 | mass density (323.15 K, 60000 kPa): 888.76 ± 1 kg/m3 | mass density (323.15 K, 70000 kPa): 894.49 ± 1 kg/m3 | mass density (323.15 K, 80000 kPa): 899.83 ± 1.1 kg/m3 | mass density (323.15 K, 90000 kPa): 904.91 ± 1.1 kg/m3 | mass density (323.15 K, 100000 kPa): 909.78 ± 1.1 kg/m3 | mass density (323.16 K, 1000 kPa): 846.56 ± 0.87 kg/m3
